# From ChEMBL document CHEMBL4888484, “Replenishing the malaria drug discovery pipeline: Screening and hit evaluation of the MMV Hit Generation Library 1 (HGL1) against asexual blood stage Plasmodium falciparum ,using a nano luciferase reporter read-out” (2022)
# Experiments:
# Plasmodium falciparum [1] = test: Hit confirmation in dose-response curve in NF54 nanoGlo assay, at 12h; format: functional, organism-based, Erythrocyte; parameters: timepoint 12 hour
# [2] = Re-testing in dose-response curve in HepG2 cytotoxicity assay, at 72h; format: toxicity, cell-based; parameters: timepoint 72 hour; conditions: human, HepG2 cells
# [3] = Hit confirmation in dose-response curve in HepG2 cytotoxicity assay, at 72h; format: toxicity, cell-based; parameters: timepoint 72 hour; conditions: human, HepG2 cells
# Plasmodium falciparum [4] = test: Hit confirmation in dose-response curve in NF54 nanoGlo assay, at 72h; format: functional, organism-based, Erythrocyte; parameters: timepoint 72 hour
# Plasmodium falciparum [5] = test: Hit confirmation in dose-response curve in NF54 pLDH assay, at 72h; format: functional, organism-based; parameters: timepoint 72 hour; conditions: NF54, Erythrocyte
# Plasmodium falciparum [6] = test: Re-testing in dose-response curve in 3D7 pLDH assay, at 72h; format: functional, organism-based; parameters: timepoint 72 hour; conditions: 3D7, Erythrocyte
# Plasmodium falciparum [7] = test: Hit confirmation in dose-response curve in Dd2 pLDH assay, at 72h; format: functional, organism-based; parameters: timepoint 72 hour; conditions: Dd2, Erythrocyte
# [8] = Plasmodium falciparum, NF54, Erythrocyte, 12 h
# [9] = Plasmodium falciparum, NF54, Erythrocyte, 72 h
SMILES,IC50 (Plasmodium falciparum [1]; [8]) [nM],IC50 (Plasmodium falciparum [4]; [9]) [nM],IC50 (Plasmodium falciparum [5]) [nM],IC50 (Plasmodium falciparum [6]) [nM],IC50 (Plasmodium falciparum [7]) [nM],IC50 (Plasmodium falciparum [1]; erythrocyte) [nM],IC50 (Plasmodium falciparum [4]; erythrocyte) [nM],IC50 at 72 h [2] [nM],IC50 at 72 h [3] [nM]
Cc1cnccc1NCCNCc1cccc(O)c1Cl,> 10000,1120,1480,943,1230,,,> 25000,> 10000
CCOc1cccc(-c2ccc3nc(-c4cccc(OC)c4)c(CCC(=O)NCCN4CCCC4)n3c2)c1,7240,309,282,54.8,1200,,,15900,> 10000
COc1ccccc1C(=O)NC1=NN2C(=NC(c3ccc(Cl)cc3)=C[C@H]2c2ccc(Cl)cc2)N1,1070,630,2750,4930,1100,,,> 25000,> 10000
CN(CCNC(=O)CCc1cn(-c2ccccc2)nc1-c1ccc2c(c1)OCO2)C1CCCCC1,> 10000,1480,3310,545,1480,,,~9240,> 10000
CCC1=C(c2ccc(C)cc2)S(=O)(=O)N=C1N1CCC(C(=O)NCCN2CCCC[C@@H]2C)CC1,> 10000,2690,1350,522,1410,,,> 25000,> 10000
O=C(Nc1cnc2ccccc2c1)c1ccccc1C(=O)c1ccc(F)cc1,631,490,2570,1390,955,,,> 25000,> 10000
CCCCN(CC)CCNC(=O)C1CCN(C2=NS(=O)(=O)C(c3ccc(OC)cc3)=C2C)CC1,> 10000,3020,1200,702,1320,,,> 25000,> 10000
Nc1ncc(C(=O)N2CCC3(CCCCCC3)C2)s1,1000,832,871,575,1120,,,> 25000,> 10000
c1cc(N2CC[C@@]3(CCCNC3)C2)c2sccc2n1,617,479,389,580,398,,,> 14200,> 10000
CCN1CCN(c2cccc(NC(=O)c3cc(F)cc4c(=O)c5cc(F)ccc5[nH]c34)c2)CC1,1320,912,1380,609,1170,,,3480,> 10000
Clc1ccc(Cn2cc(CNCCCn3ccnc3)c3ccccc32)c(Cl)c1,1510,741,562,~467,1170,,,3900,> 10000
O=C(Nc1cc(N2CCCS2(=O)=O)ccc1O)c1cccc(Oc2cccc(C(F)(F)F)c2)c1,501,355,1100,416,537,,,20800,> 10000
COc1ccc(CC(=O)Nc2cc(C)n(-c3cccc(Cl)c3)n2)cc1,6460,1550,2820,751,1550,,,> 25000,> 10000
Cc1ccc(NC(=O)c2c(C)nc3sc(C(=O)NCc4ccccc4)c(N)c3c2-c2ccccc2Cl)c(C)c1,1510,831,1410,1080,1780,,,> 25000,> 10000
CC(C)CC[C@@H](CCNCCN(C)C)c1ccc(Cl)cc1,891,562,1020,3230,977,,,14900,> 10000
Cc1ccc(O)c(CNCC2(c3ccccc3Cl)CCOCC2)n1,316,209,575,444,437,,,> 25000,> 10000

# The next lines start with results.
IC50 (Plasmodium falciparum [1]; [8]) [nM],IC50 (Plasmodium falciparum [4]; [9]) [nM],IC50 (Plasmodium falciparum [5]) [nM],IC50 (Plasmodium falciparum [6]) [nM],IC50 (Plasmodium falciparum [7]) [nM],IC50 (Plasmodium falciparum [1]; erythrocyte) [nM],IC50 (Plasmodium falciparum [4]; erythrocyte) [nM],SMILES,IC50 at 72 h [2] [nM],IC50 at 72 h [3] [nM]
> 10000,1100,2690,1050,1200,,,C[C@H](N)c1ccc(Nc2ncc3cc(-c4ccncc4)ccc3n2)cc1,11400,> 10000
851,550,759,267,661,,,CC1(C)OCc2cc(CNc3ccc4oc(=O)[nH]c4c3)ccc2O1,20400,> 10000
,,2400,1130,1230,1170,813,CC(C)c1ccc(-c2nc(CN3CCCCC3)cc(CN3CCCCC3)c2O)cc1,> 25000,> 10000
1450,776,1100,845,1000,,,COc1ccc2nc(O)c(C(=O)Nc3ccc4c(c3F)CCNC4)cc2c1,2270,5620
1730,1230,1820,1280,1550,,,COc1cccc(-c2cc(O)cc(CC[C@H]3CCCCN3)c2)n1,> 25000,> 10000
> 10000,457,1170,118,741,,,COc1ccc(C(=O)N2c3ncnn3C(c3ccccc3)CC2c2ccc(C)cc2)cc1OC (centres undefined),> 25000,> 10000
7080,4570,1020,321,646,,,Cc1cnccc1NCCNC1CCN(c2ccc3c(c2)CCC3)CC1,5420,8130
2400,589,1000,534,589,,,CC(C)c1ccc2ncnc(N[C@H]3CCc4[nH]cnc4C3)c2c1,> 25000,> 10000
> 10000,1050,3630,347,794,,,COc1ccc(-c2cc(C(=O)N[C@H]3CCN(c4ccc(=O)n(C)n4)C3)c(C)n2C)cc1,> 25000,> 10000
1260,468,1410,1710,1450,,,C[C@H]1CCCN(c2nc(-c3ccccn3)nc3ccccc23)C1,1760,> 10000
8910,1000,794,663,708,,,CCn1cnc2c(N3CCC[C@H](c4ccncc4)C3)ncnc21,> 25000,> 10000
